# Assay results from PubChem BioAssay AID330 (DTP/NCI, 2004).
# “And” between values parts separate entries of the source, which are not always exact repeats. Identical values can stand only once. Toxic doses and inconclusive results are not listed.
# Test system: P388 leukemia ip, CD2F1 mice, survival T/C
# Assay: NCI In Vivo Anticancer Drug Screen. Data for tumor model P388 Leukemia (intraperitoneal) in CD2F1 (CDF1) mice
# Settings: endpoint: median survival time, higher = longer survival
# Outline: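 Mice carrying the transplanted tumor received test compound or vehicle. Survival was recorded in each group, and the value is the treated-group measurement divided by that of the vehicle-treated control group.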
# [1] = dose: 50.0 mg/kg/injection, schedule: Q04DX003 (ip), vehicle: saline with Tween-80
# [2] = dose: 50.0 mg/kg/injection, schedule: Q01DX005 (ip), vehicle: Klucel (hydroxypropylcellulose) (HPC)
# [3] = dose: 100.0 mg/kg/injection, schedule: Q01DX005 (ip), vehicle: Klucel (hydroxypropylcellulose) (HPC)
# [4] = dose: 200.0 mg/kg/injection, schedule: Q01DX005 (ip), vehicle: Klucel (hydroxypropylcellulose) (HPC)
# [5] = dose: 60.0 mg/kg/injection, schedule: Q01DX005 (ip), vehicle: saline with Tween-80
# [6] = dose: 120.0 mg/kg/injection, schedule: Q01DX005 (ip), vehicle: saline with Tween-80
# [7] = dose: 240.0 mg/kg/injection, schedule: Q01DX005 (ip), vehicle: saline with Tween-80
# [8] = dose: 60.0 mg/kg/injection, schedule: Q01DX005 (ip), vehicle: Klucel (hydroxypropylcellulose) (HPC)
# [9] = dose: 120.0 mg/kg/injection, schedule: Q01DX005 (ip), vehicle: Klucel (hydroxypropylcellulose) (HPC)
# [10] = dose: 240.0 mg/kg/injection, schedule: Q01DX005 (ip), vehicle: Klucel (hydroxypropylcellulose) (HPC)
# [11] = dose: 50.0 mg/kg/injection, schedule: Q01DX005 (ip), vehicle: saline with Tween-80
# [12] = dose: 100.0 mg/kg/injection, schedule: Q01DX005 (ip), vehicle: saline with Tween-80
# [13] = dose: 200.0 mg/kg/injection, schedule: Q01DX005 (ip), vehicle: saline with Tween-80
# [14] = dose: 25.0 mg/kg/injection, schedule: Q01DX009 (ip), vehicle: Klucel (hydroxypropylcellulose) (HPC)
# [15] = dose: 50.0 mg/kg/injection, schedule: Q01DX009 (ip), vehicle: Klucel (hydroxypropylcellulose) (HPC)
# [16] = dose: 100.0 mg/kg/injection, schedule: Q01DX009 (ip), vehicle: Klucel (hydroxypropylcellulose) (HPC)
# [17] = dose: 200.0 mg/kg/injection, schedule: Q01DX009 (ip), vehicle: Klucel (hydroxypropylcellulose) (HPC)
# [18] = dose: 400.0 mg/kg/injection, schedule: Q01DX009 (ip), vehicle: Klucel (hydroxypropylcellulose) (HPC)
compound,measurement,setting,value
O=C(CC(O)(C(F)(F)Cl)C(F)(F)Cl)c1ccco1,T/C,[1],109 % of control
same,T/C,"dose: 100.0 mg/kg/injection, schedule: Q04DX003 (ip), vehicle: saline with Tween-80",118 % of control
same,T/C,"dose: 200.0 mg/kg/injection, schedule: Q04DX003 (ip), vehicle: saline with Tween-80",100 % of control
O=C(O)C1CCCN1C(=O)OCC1c2ccccc2-c2ccccc21 (centres undefined),T/C,[2],99 % of control
same,T/C,[3],99 % of control
same,T/C,[4],95 % of control
CC1Oc2cc3c(-c4c(O)cc(O)c5c(O)c6c(cc45)OC(C)C(C)C6=O)c(O)cc(O)c3c(O)c2C(=O)C1C (centres undefined),T/C,"dose: 1.25 mg/kg/injection, schedule: Q01DX005 (ip), vehicle: saline",101 % of control
same,T/C,"dose: 1.25 mg/kg/injection, schedule: Q01DX005 (ip), vehicle: suspension in saline",100 % of control
same,T/C,"dose: 2.5 mg/kg/injection, schedule: Q01DX005 (ip), vehicle: saline",100 % of control
same,T/C,"dose: 2.5 mg/kg/injection, schedule: Q01DX005 (ip), vehicle: suspension in saline",95 % of control
same,T/C,"dose: 5.0 mg/kg/injection, schedule: Q01DX005 (ip), vehicle: suspension in saline",121 % of control
same,T/C,"dose: 10.0 mg/kg/injection, schedule: Q01DX005 (ip), vehicle: suspension in saline",116 % of control
same,T/C,"dose: 20.0 mg/kg/injection, schedule: Q01DX005 (ip), vehicle: suspension in saline",110 % of control
COC(=O)c1cc(-c2ccc(N)cc2)c2c(=O)n(-c3ccccc3)[nH]c2n1,T/C,[5],100 % of control
same,T/C,[6],91 % of control
same,T/C,[7],87 % of control
COC1(OC)OC(c2ccccc2)=C(C#N)C(c2ccc(Cl)cc2)C1(OC)OC (centres undefined),T/C,[8],96 % of control
same,T/C,[9],94 % of control
same,T/C,[10],88 % of control
O=c1oc2c(c3c1CCCC3)c(=O)[nH]c1ccccc12,T/C,[2],111 % of control
same,T/C,[3],116 % of control
same,T/C,[4],115 % of control
CNC(=O)O[C@H]1CC[C@@]2(C)C(=CC[C@H]3[C@@H]4CC[C@H]([C@H](C)CCCC(C)C)[C@@]4(C)CC[C@@H]32)C1,T/C,[11],100 % of control
same,T/C,[12],96 % of control
same,T/C,[13],100 % of control
CN(C)C1C(=O)C(C(N)=O)=C(O)C2(O)C(=O)C3=C(O)c4c(O)cccc4C(C)(O)C3CC12.O.O.O.[Al] (centres undefined),T/C,[14],95 % of control
same,T/C,[11],99 % of control
same,T/C,[15],92 % of control
same,T/C,[12],99 % of control
same,T/C,[16],103 % of control
same,T/C,[13],99 % of control
same,T/C,[17],106 % of control
same,T/C,[18],107 % of control
C1CCN2CSCCCC2C1 (centres undefined),T/C,"dose: 50.0 mg/kg/injection, schedule: Q01DX005 (ip), vehicle: saline",100 % of control
same,T/C,"dose: 100.0 mg/kg/injection, schedule: Q01DX005 (ip), vehicle: saline",104 % of control
same,T/C,"dose: 200.0 mg/kg/injection, schedule: Q01DX005 (ip), vehicle: saline",111 % of control
COc1cc(C/C(=C\c2ccc(OC)c(OCc3ccccc3)c2)[N+](=O)[O-])ccc1OCc1ccccc1,T/C,"dose: 9.38 mg/kg/injection, schedule: Q04DX003 (ip), vehicle: Klucel (hydroxypropylcellulose) (HPC)",100 % of control
same,T/C,"dose: 18.75 mg/kg/injection, schedule: Q04DX003 (ip), vehicle: Klucel (hydroxypropylcellulose) (HPC)",100 % of control
same,T/C,"dose: 37.5 mg/kg/injection, schedule: Q04DX003 (ip), vehicle: Klucel (hydroxypropylcellulose) (HPC)",100 % of control
COc1ccc(/C=C2/C(=O)N(c3ccccc3)N=C2C)c(OC)c1,T/C,"dose: 30.0 mg/kg/injection, schedule: Q01DX005 (ip), vehicle: Klucel (hydroxypropylcellulose) (HPC)",91 % of control
same,T/C,[8],88 % of control and 95 % of control
same,T/C,[9],94 % of control
same,T/C,[10],86 % of control
Cc1ccccc1C1(Br)C(=O)c2ccccc2C1=O,T/C,"dose: 100.0 mg/kg/injection, schedule: Q04DX002 (ip), vehicle: saline",101 % of control
same,T/C,"dose: 200.0 mg/kg/injection, schedule: Q04DX002 (ip), vehicle: saline",101 % of control
same,T/C,"dose: 400.0 mg/kg/injection, schedule: Q04DX002 (ip), vehicle: saline",102 % of control
[O-]c1nn(C2OC(CO)C(O)C2O)c2cccc[n+]12 (centres undefined),T/C,"dose: 100.0 mg/kg/injection, schedule: Q01DX001 (ip), vehicle: saline",110 % of control
same,T/C,"dose: 200.0 mg/kg/injection, schedule: Q01DX001 (ip), vehicle: saline",108 % of control
same,T/C,"dose: 400.0 mg/kg/injection, schedule: Q01DX001 (ip), vehicle: saline",95 % of control
CC([NH-])C[NH-].O=[N+]([O-])O.O=[N+]([O-])O.[Pt+2] (centres undefined),T/C,"dose: 6.25 mg/kg/injection, schedule: Q04DX002 (ip), vehicle: saline",153 % of control
same,T/C,"dose: 12.5 mg/kg/injection, schedule: Q04DX002 (ip), vehicle: saline",100 % of control and 98 % of control
COC(=O)C1(Br)CCC1(Br)C(=O)OC (centres undefined),T/C,[15],100 % of control
same,T/C,[16],109 % of control
same,T/C,[17],103 % of control
same,T/C,[18],94 % of control
CCOP(=S)(N/N=C/c1cccnc1)OCC,T/C,"dose: 100.0 mg/kg/injection, schedule: Q01DX001 (ip), vehicle: Klucel (hydroxypropylcellulose) (HPC)",101 % of control
same,T/C,"dose: 200.0 mg/kg/injection, schedule: Q01DX001 (ip), vehicle: Klucel (hydroxypropylcellulose) (HPC)",101 % of control
same,T/C,"dose: 400.0 mg/kg/injection, schedule: Q01DX001 (ip), vehicle: Klucel (hydroxypropylcellulose) (HPC)",108 % of control
COC(=O)C(F)C(N)C(=O)O (centres undefined),T/C,"dose: 12.5 mg/kg/injection, schedule: Q04DX003 (ip), vehicle: saline with Tween-80",100 % of control
same,T/C,"dose: 25.0 mg/kg/injection, schedule: Q04DX003 (ip), vehicle: saline with Tween-80",101 % of control
same,T/C,[1],99 % of control
same,T/C,"dose: 200.0 mg/kg/injection, schedule: Q04DX003 (ip), vehicle: saline",103 % of control
same,T/C,"dose: 400.0 mg/kg/injection, schedule: Q04DX003 (ip), vehicle: saline",90 % of control
N#CN=[N+]([O-])c1cccc(Br)c1,T/C,"dose: 6.25 mg/kg/injection, schedule: Q04DX003 (ip), vehicle: Klucel (hydroxypropylcellulose) (HPC)",102 % of control
same,T/C,"dose: 12.5 mg/kg/injection, schedule: Q04DX003 (ip), vehicle: Klucel (hydroxypropylcellulose) (HPC)",101 % of control
same,T/C,"dose: 25.0 mg/kg/injection, schedule: Q04DX003 (ip), vehicle: Klucel (hydroxypropylcellulose) (HPC)",105 % of control
same,T/C,"dose: 50.0 mg/kg/injection, schedule: Q04DX003 (ip), vehicle: Klucel (hydroxypropylcellulose) (HPC)",100 % of control
CC1N=NNN1C (centres undefined),T/C,[11],109 % of control
same,T/C,[12],109 % of control
same,T/C,[13],100 % of control
Cc1ccc2c(c1)sc(C)[n+]2CCO,T/C,[5],100 % of control
same,T/C,[6],101 % of control
same,T/C,[7],101 % of control
N#Cc1ccc(C(=O)C=[N+]=[N-])cc1,T/C,"dose: 100.0 mg/kg/injection, schedule: Q04DX003 (ip), vehicle: Klucel (hydroxypropylcellulose) (HPC)",109 % of control
same,T/C,"dose: 200.0 mg/kg/injection, schedule: Q04DX003 (ip), vehicle: Klucel (hydroxypropylcellulose) (HPC)",93 % of control
same,T/C,"dose: 400.0 mg/kg/injection, schedule: Q04DX003 (ip), vehicle: Klucel (hydroxypropylcellulose) (HPC)",100 % of control
CCCCCN(CCCCC)C(C)C(=O)c1ccc(Cl)cc1 (centres undefined),T/C,[2],100 % of control
same,T/C,[3],100 % of control
same,T/C,[4],100 % of control
Cc1cccc(Cl)c1NC(=O)CCl,T/C,"dose: 12.5 mg/kg/injection, schedule: Q01DX009 (ip), vehicle: Klucel (hydroxypropylcellulose) (HPC)",101 % of control
same,T/C,[14],101 % of control
same,T/C,[15],93 % of control
same,T/C,[16],101 % of control
COC(=O)C1=C(C(=O)OC)C23C(=O)c4ccc(OC)c(OC)c4C1N2CCc1cc2c(cc13)OCO2 (centres undefined),T/C,"dose: 50.0 mg/kg/injection, schedule: Q04DX002 (ip), vehicle: saline with Tween-80",94 % of control
same,T/C,"dose: 100.0 mg/kg/injection, schedule: Q04DX002 (ip), vehicle: saline with Tween-80",102 % of control
same,T/C,"dose: 200.0 mg/kg/injection, schedule: Q04DX002 (ip), vehicle: saline with Tween-80",100 % of control
NNC(=O)Cc1cccc2ccc(Cl)cc12,T/C,[8],92 % of control
same,T/C,[9],88 % of control
CCNc1ccc(/C=C2\C=Cc3ccccc32)cc1,T/C,[14],110 % of control
